This note sets out measurements from patent publication US10986838B2, “Herbicides” (SYNGENTA PARTICIPATIONS AG, priority 2016, dated 2021).

The structures appear in SMILES notation.

What all share (assay type): in vivo
For test [1], the system named is Abutilon theophrasti (ABUTH). The experiment in a line: Pre-emergence herbicidal activity (B1). The conditions noted are these: Test 1b, 1000 g/ha, evaluated after 13 days, 5=total damage to plant, 0=no damage to plant. Here is the method: (§1) B1 Pre-Emergence Herbicidal Activity Seeds of a variety of test species were sown in standard soil in pots: Triticum aestivium (TRZAW), Avena fatua (AVEFA), Alopecurus myosuroides (ALOMY), Echinochloa crus-galli (ECHCG), Lolium perenne (LOLPE), Zea Mays (ZEAMX), Abutilon theophrasti (ABUTH), Amaranthus retroflexus (AMARE) and Setaria faberi (SETFA). After cultivation for one day (pre-emergence) under controlled conditions in a glasshouse (at 24/16° C., day/night; 14 hours light; 65% humidity), the plants were sprayed with an aqueous spray solution derived from the formulation of the technical active ingredient in acetone/water (50:50) solution containing 0.5% Tween 20 (polyoxyethelyene sorbitan monolaurate, CAS RN 9005-64-5). The test plants were then grown in a glasshouse under controlled conditions (at 24/16° C., day/night; 14 hours light; 65% humidity) and watered twice daily. After 13 days, the test was evaluated (5=total damage to plant; 0=no damage to plant). Tables B1a and B1b Control of Weed Species by Compound of Formula (I) after Pre-Emergence Application

The subject of test [2] is Amaranthus retroflexus (AMARE). Nature of the test: Pre-emergence herbicidal activity (B1). The conditions noted are these: Test 1b, 1000 g/ha, evaluated after 13 days, 5=total damage to plant, 0=no damage to plant. Here is the method: as §1
In test [3] the test system is Echinochloa crus-galli (ECHCG). The experiment in a line: Pre-emergence herbicidal activity (B1). The conditions noted are these: Test 1b, 1000 g/ha, evaluated after 13 days, 5=total damage to plant, 0=no damage to plant. As for the experimental part: as §1
Test [4] concerns Lolium perenne (LOLPE). The experiment in a line: Pre-emergence herbicidal activity (B1). The conditions noted are these: Test 1b, 1000 g/ha, evaluated after 13 days, 5=total damage to plant, 0=no damage to plant. Here is the method:
as §1

For test [5], the system named is Setaria faberi (SETFA). The experiment in a line: Pre-emergence herbicidal activity (B1). The conditions noted are these: Test 1b, 1000 g/ha, evaluated after 13 days, 5=total damage to plant, 0=no damage to plant. As for the experimental part:
as §1

Test [6] deals with Zea Mays (ZEAMX). The experiment in a line: Pre-emergence herbicidal activity (B1). The conditions noted are these: Test 1b, 1000 g/ha, evaluated after 13 days, 5=total damage to plant, 0=no damage to plant. Here is the method:
as §1

In test [7] the test system is Abutilon theophrasti (ABUTH). Nature of the test: Post-emergence herbicidal activity (B2). The settings on record: Test B2b, 1000 g/ha, evaluated after 13 days, 5=total damage to plant, 0=no damage to plant. Here is the method:
(§2) B2 Post-Emergence Herbicidal Activity Seeds of a variety of test species were sown in standard soil in pots: Triticum aestivium (TRZAW), Avena fatua (AVEFA), Alopecurus myosuroides (ALOMY), Echinochloa crus-galli (ECHCG), Lolium perenne (LOLPE), Zea Mays (ZEAMX), Abutilon theophrasti (ABUTH), Amaranthus retroflexus (AMARE) and Setaria faberi (SETFA). After 8 days cultivation (post-emergence) under controlled conditions in a glasshouse (at 24/16° C., day/night; 14 hours light; 65% humidity), the plants were sprayed with an aqueous spray solution derived from the formulation of the technical active ingredient in acetone/water (50:50) solution containing 0.5% Tween 20 (polyoxyethelyene sorbitan monolaurate, CAS RN 9005-64-5). The test plants were then grown in a glasshouse under controlled conditions (at 24/16° C., day/night; 14 hours light; 65% humidity) and watered twice daily. After 13 days, the test was evaluated (5=total damage to plant; 0=no damage to plant). Tables B2a and B2b Control of Weed Species by Compound of Formula (I) after Post-Emergence Application

Test [8] has as its system Amaranthus retroflexus (AMARE). The experiment in a line: Post-emergence herbicidal activity (B2). The conditions noted are these: Test B2b, 1000 g/ha, evaluated after 13 days, 5=total damage to plant, 0=no damage to plant. As for the experimental part: as §2
Test [9] relates to Echinochloa crus-galli (ECHCG). The experiment in a line: Post-emergence herbicidal activity (B2). The conditions noted are these: Test B2b, 1000 g/ha, evaluated after 13 days, 5=total damage to plant, 0=no damage to plant. Here is the method: as §2
The subject of test [10] is Lolium perenne (LOLPE). The experiment in a line: Post-emergence herbicidal activity (B2). The settings on record: Test B2b, 1000 g/ha, evaluated after 13 days, 5=total damage to plant, 0=no damage to plant. As for the experimental part:
as §2

Test [11] relates to Setaria faberi (SETFA). The experiment in a line: Post-emergence herbicidal activity (B2). The conditions noted are these: Test B2b, 1000 g/ha, evaluated after 13 days, 5=total damage to plant, 0=no damage to plant. As for the experimental part: as §2
Test [12] relates to Zea Mays (ZEAMX). Nature of the test: Post-emergence herbicidal activity (B2). The settings on record: Test B2b, 1000 g/ha, evaluated after 13 days, 5=total damage to plant, 0=no damage to plant. As for the experimental part: as §2

Take `CNc1ccc(-c2cncc(C(F)(F)F)c2)nc1C(F)(F)F` [Compound A7]: the ABUTH damage score in [1] came out at 1; in test [7] it was 0. For the same compound, the AMARE damage score in [2] and in [8] was 1 in each case. For the same compound, the ECHCG damage score in test [3] worked out at 0; in test [9], 1. Moreover, the LOLPE damage score in test [4] turned out to be 0; in [10] it was 1. For the same compound, the SETFA damage score in test [5] and in test [11] was 3 each time. In addition, the results for the ZEAMX damage score in test [6] and in test [12] were 0 and 1, respectively.
`Cc1nc(-c2cncc(F)c2)ccc1N` [Compound A8]: the ABUTH damage score in [1] and in test [7] was 0 each time. Moreover, the AMARE damage score in test [2] and in [8] was 0 throughout. The ECHCG damage score was 2 in test [3] and 4 in test [9]. Moreover, the LOLPE damage score was 1 in test [4] and 3 in test [10]. The SETFA damage score in test [5] and in [11] was 5 throughout. For the same compound, the ZEAMX damage score in test [6] was 3; in test [12], 5.
Consider `CNc1ccc(-c2cncnc2)nc1C` [Compound A15], for which the ABUTH damage score in [1] and in test [7] was 0 each time. Also, the AMARE damage score in [2] was determined as 0; in test [8], 1. Also, the ECHCG damage score in [3] stood at 1; in test [9], 2. For the same compound, the LOLPE damage score turned out to be 0 in test [4] and 1 in test [10]. The SETFA damage score in test [5] came to 1; in [11], 2. Moreover, the ZEAMX damage score in [6] and in test [12] was 1 each time.
For `Cc1nc(-c2cncnc2)ccc1N` [Compound A14], the ABUTH damage score in test [1] and in test [7] was 0 each time. Further, the AMARE damage score in [2] is on record as 0; in test [8], 2. In addition, the results for the ECHCG damage score in test [3] and in test [9] were 1 and 2, respectively. The LOLPE damage score in test [4] and in [10] was 1 throughout. For the same compound, the values for the SETFA damage score in test [5] and in [11] were 2 and 3, respectively. Besides, the ZEAMX damage score came out at 1 in [6] and 2 in test [12].
Turning to `CCNc1ccc(-c2cncc(F)c2)nc1C(F)(F)F` [Compound A27], the ABUTH damage score in test [1] and in [7] was 0 in each case. Moreover, the AMARE damage score in [2] and in [8] was 0 each time. Also, the values for the ECHCG damage score in [3] and in test [9] were 5 and 4, respectively. The LOLPE damage score in test [4] is reported as 2; in [10], 4. Moreover, the SETFA damage score in test [5] came to 4; in [11] it was 5. Besides, the ZEAMX damage score in [6] and in [12] was 5 throughout.
Take `Fc1cncc(-c2ccc(NCc3ccc(C(F)(F)F)cc3)c(C(F)(F)F)n2)c1` [Compound A26]: the ABUTH damage score in test [1] and in test [7] was 0 throughout. The AMARE damage score in test [2] and in test [8] was 0 in each case. Also, the figures for the ECHCG damage score in test [3] and in test [9] were 2 and 3, respectively. Further, the LOLPE damage score in test [4] was 0; in [10] it was 2. Further, the SETFA damage score in [5] and in [11] was 4 in each case. Besides, the ZEAMX damage score came to 2 in test [6] and 5 in [12].
In the case of `CC(Nc1ccc(-c2cncc(F)c2)nc1C(F)(F)F)c1ccccc1` (stereo not drawn) [Compound A17], the ABUTH damage score in test [1] and in test [7] was 0 in each case. For the same compound, the AMARE damage score in [2] and in test [8] was 0 in each case. Further, the values for the ECHCG damage score in [3] and in test [9] were 0 and 4, respectively. In addition, the LOLPE damage score in test [4] was 0; in test [10], 1. In addition, the SETFA damage score in test [5] turned out to be 2; in [11] it was 4. For the same compound, the ZEAMX damage score in test [6] worked out at 0; in test [12], 4.
On to `CC(Nc1ccc(-c2cncc(F)c2)nc1C(F)(F)F)c1cccc(C(F)(F)F)c1` (stereo not drawn) [Compound A16], for which the ABUTH damage score in test [1] and in test [7] was 0 in each case. Also, the AMARE damage score in test [2] and in [8] was 0 throughout. The values for the ECHCG damage score in test [3] and in [9] were 1 and 3, respectively. In addition, the LOLPE damage score in test [4] was 0; in test [10] it was 1. In addition, the SETFA damage score is reported as 4 in test [5] and 5 in test [11]. For the same compound, the ZEAMX damage score is 1 in [6] and 3 in [12].
For the compound `CC#CCNc1ccc(-c2cncc(F)c2)nc1C(F)(F)F` [Compound A30], the values for the ABUTH damage score in test [1] and in test [7] were 0 and 2, respectively. Further, the AMARE damage score in test [2] and in test [8] was 2 throughout. For the same compound, the ECHCG damage score in test [3] was determined as 4; in [9] it was 5. In addition, the values for the LOLPE damage score in [4] and in test [10] were 2 and 4, respectively. The SETFA damage score in test [5] and in test [11] was 5 each time. The ZEAMX damage score in test [6] and in test [12] was 5 each time.
Turning to `C=CCNc1ccc(-c2cncc(F)c2)nc1C(F)(F)F` [Compound A25], the ABUTH damage score in test [1] and in test [7] was 0 each time. The values for the AMARE damage score in [2] and in test [8] were 1 and 2, respectively. The ECHCG damage score in test [3] and in test [9] was 4 throughout. Further, the LOLPE damage score in test [4] was 2; in [10] it was 3. In addition, the SETFA damage score in test [5] was found to be 4; in test [11], 5. For the same compound, the ZEAMX damage score in test [6] and in test [12] was 5 each time.
`Nc1ccc(-c2cncc(F)c2)nc1C(F)(F)F` [Compound A33, 6-(5-fluoro-3-pyridyl)-2-(trifluoromethyl)pyridin-3-amine]: the figures for the ABUTH damage score in [1] and in test [7] were 0 and 1, respectively. Moreover, the values for the AMARE damage score in test [2] and in test [8] were 1 and 2, respectively. In addition, the figures for the ECHCG damage score in test [3] and in [9] were 2 and 3, respectively. Besides, the LOLPE damage score in test [4] is given as 2; in test [10], 3. The SETFA damage score in test [5] amounted to 4; in [11], 5. Also, the ZEAMX damage score in test [6] is recorded as 4; in test [12], 5.
For the compound `Cc1nc(-c2cncc(C(F)(F)F)c2)ccc1N` [Compound A12], the ABUTH damage score in [1] and in test [7] was 0 each time. In addition, the AMARE damage score in test [2] and in [8] was 0 each time. Moreover, the ECHCG damage score in [3] is 0; in test [9], 1. For the same compound, the LOLPE damage score in test [4] and in [10] was 0 each time. Further, the SETFA damage score in test [5] came out at 0; in test [11], 1. The ZEAMX damage score in test [6] was 0; in test [12], 1.
